{"source": "paper doi:10.1101/2021.02.22.432362v1", "about": "(biorxiv, 2021)", "key": {"BRD8(1)": {"molecular_target": "BRD8(1) (Homo sapiens, UniProt Q9H0E9)", "sequence (Q9H0E9 706-811 limits assumed)": "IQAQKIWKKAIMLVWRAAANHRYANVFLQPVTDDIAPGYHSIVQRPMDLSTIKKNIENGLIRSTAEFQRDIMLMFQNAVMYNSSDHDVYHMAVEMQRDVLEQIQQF", "assay": "AlphaScreen biotin-tracer competition", "type": "binding"}, "BRD9 [1]": {"molecular_target": "BRD9 (Homo sapiens, UniProt Q9H8M2)", "assay": "AlphaScreen tracer competition", "type": "binding"}, "BRD9 [2]": {"molecular_target": "BRD9 (Homo sapiens, UniProt Q9H8M2)", "assay": "biochemical", "details": "read-out: % Ctrl (1 uM)"}, "WDR9(2)": {"molecular_target": "WDR9(2) (Homo sapiens, UniProt Q9NSI6)", "assay": "biochemical", "details": "read-out: % Ctrl (1 uM)"}, "PBRM1(2)": {"molecular_target": "PBRM1(2) (Homo sapiens, UniProt Q86U86)", "assay": "biochemical", "details": "read-out: % Ctrl (1 uM)"}, "GCN5L2": {"molecular_target": "GCN5L2 (Homo sapiens, UniProt Q92830)", "assay": "biochemical", "details": "read-out: % Ctrl (1 uM)"}, "BAZ2B": {"molecular_target": "BAZ2B (Homo sapiens, UniProt Q9UIF8)", "assay": "biochemical", "details": "read-out: % Ctrl (1 uM)"}, "Trim33(PHD,Bromo.)": {"molecular_target": "Trim33(PHD,Bromo.) (Homo sapiens, UniProt Q9UPN9)", "assay": "biochemical", "details": "read-out: % Ctrl (1 uM)"}, "SMARCA2": {"molecular_target": "SMARCA2 (Homo sapiens, UniProt P51531)", "sequence (P51531 whole entry)": "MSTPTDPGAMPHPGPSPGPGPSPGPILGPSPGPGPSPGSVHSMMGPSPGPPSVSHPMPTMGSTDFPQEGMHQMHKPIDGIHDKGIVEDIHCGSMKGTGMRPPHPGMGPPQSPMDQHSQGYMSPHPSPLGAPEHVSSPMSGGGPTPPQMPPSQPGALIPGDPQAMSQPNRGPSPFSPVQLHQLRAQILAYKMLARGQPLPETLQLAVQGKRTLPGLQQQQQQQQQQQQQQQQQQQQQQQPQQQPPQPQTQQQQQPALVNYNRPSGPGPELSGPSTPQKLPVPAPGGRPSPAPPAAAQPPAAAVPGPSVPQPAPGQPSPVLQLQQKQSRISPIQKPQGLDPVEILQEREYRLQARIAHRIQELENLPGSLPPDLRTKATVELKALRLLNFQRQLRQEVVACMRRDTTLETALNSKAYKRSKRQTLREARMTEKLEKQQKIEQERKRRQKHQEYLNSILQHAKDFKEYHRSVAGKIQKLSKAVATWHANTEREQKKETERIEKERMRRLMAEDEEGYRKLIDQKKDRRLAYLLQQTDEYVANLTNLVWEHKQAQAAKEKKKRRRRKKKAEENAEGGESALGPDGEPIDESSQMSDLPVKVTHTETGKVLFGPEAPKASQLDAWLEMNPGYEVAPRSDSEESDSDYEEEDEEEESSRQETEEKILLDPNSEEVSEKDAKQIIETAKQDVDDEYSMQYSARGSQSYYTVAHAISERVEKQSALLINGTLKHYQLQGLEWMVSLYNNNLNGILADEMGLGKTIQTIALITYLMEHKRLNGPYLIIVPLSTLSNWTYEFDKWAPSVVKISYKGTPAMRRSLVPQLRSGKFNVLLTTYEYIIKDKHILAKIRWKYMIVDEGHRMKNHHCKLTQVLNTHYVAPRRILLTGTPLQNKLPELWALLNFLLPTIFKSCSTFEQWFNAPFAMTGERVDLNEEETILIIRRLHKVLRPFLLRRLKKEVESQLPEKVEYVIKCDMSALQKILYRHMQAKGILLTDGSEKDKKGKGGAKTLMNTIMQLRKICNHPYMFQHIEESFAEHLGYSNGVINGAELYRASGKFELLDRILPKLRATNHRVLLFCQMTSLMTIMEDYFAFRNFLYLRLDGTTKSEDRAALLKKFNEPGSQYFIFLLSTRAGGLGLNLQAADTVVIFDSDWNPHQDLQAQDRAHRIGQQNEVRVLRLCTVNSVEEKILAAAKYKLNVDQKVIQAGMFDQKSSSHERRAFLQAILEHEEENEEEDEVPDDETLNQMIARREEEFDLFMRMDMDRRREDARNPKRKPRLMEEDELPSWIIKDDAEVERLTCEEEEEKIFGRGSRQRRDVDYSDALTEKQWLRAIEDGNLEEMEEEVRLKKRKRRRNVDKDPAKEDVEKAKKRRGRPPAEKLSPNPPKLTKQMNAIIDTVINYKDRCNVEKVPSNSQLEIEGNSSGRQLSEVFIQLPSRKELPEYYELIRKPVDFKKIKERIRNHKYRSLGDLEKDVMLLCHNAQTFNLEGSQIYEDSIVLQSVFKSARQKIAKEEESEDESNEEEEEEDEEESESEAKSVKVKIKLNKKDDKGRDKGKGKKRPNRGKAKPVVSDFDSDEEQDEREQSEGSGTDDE", "assay": "biochemical", "details": "read-out: % Ctrl (1 uM)"}, "BRD4(1)": {"molecular_target": "BRD4(1) (Homo sapiens, UniProt O60885)", "assay": "biochemical", "details": "read-out: % Ctrl (1 uM)"}, "PBRM1(5)": {"molecular_target": "PBRM1(5) (Homo sapiens, UniProt Q86U86)", "assay": "biochemical", "details": "read-out: % Ctrl (1 uM)"}, "ATAD2B": {"molecular_target": "ATAD2B (Homo sapiens, UniProt Q9ULI0)", "sequence (Q9ULI0 whole entry)": "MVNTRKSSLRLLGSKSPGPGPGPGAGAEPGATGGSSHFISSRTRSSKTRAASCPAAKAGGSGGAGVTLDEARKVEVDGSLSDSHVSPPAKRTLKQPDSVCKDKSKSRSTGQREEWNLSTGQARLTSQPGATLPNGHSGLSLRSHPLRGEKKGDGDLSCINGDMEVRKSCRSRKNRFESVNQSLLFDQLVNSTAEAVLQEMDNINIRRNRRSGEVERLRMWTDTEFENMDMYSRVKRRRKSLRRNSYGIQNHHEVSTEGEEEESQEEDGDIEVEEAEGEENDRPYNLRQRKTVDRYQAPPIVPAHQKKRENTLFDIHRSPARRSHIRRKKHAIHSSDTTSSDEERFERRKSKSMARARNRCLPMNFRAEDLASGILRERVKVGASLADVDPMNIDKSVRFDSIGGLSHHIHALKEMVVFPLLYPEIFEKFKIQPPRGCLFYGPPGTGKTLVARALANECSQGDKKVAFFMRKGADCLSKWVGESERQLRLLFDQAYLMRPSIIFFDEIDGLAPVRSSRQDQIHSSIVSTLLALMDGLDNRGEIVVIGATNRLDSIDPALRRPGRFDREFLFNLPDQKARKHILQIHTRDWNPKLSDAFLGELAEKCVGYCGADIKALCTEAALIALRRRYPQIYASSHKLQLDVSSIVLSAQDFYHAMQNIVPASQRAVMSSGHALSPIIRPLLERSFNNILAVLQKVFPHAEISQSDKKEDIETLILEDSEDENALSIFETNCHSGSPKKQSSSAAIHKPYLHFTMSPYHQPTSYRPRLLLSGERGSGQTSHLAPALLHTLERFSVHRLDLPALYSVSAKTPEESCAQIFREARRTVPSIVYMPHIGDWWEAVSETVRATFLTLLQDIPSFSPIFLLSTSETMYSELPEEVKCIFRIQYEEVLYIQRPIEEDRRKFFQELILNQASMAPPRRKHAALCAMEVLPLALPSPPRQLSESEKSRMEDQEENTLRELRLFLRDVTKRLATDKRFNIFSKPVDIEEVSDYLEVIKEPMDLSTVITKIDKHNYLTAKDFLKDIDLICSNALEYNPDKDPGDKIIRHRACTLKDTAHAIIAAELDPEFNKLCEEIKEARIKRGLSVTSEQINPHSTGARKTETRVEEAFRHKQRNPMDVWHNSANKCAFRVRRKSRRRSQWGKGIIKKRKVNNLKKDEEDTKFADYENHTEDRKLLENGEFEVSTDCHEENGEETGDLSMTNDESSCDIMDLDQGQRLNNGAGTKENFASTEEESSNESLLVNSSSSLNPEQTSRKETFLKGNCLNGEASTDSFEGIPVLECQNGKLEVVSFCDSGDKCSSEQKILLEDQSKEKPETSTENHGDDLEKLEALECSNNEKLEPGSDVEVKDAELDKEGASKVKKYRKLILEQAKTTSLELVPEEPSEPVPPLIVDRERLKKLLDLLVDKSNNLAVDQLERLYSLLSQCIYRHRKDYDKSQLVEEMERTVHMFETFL", "assay": "biochemical", "details": "read-out: % Ctrl (1 uM)"}, "BRD3(1)": {"molecular_target": "BRD3(1) (Homo sapiens, UniProt Q15059)", "assay": "biochemical", "details": "read-out: % Ctrl (1 uM)"}, "BRDT(1)": {"molecular_target": "BRDT(1) (Homo sapiens, UniProt Q58F21)", "assay": "biochemical", "details": "read-out: % Ctrl (1 uM)"}, "CECR2": {"molecular_target": "CECR2 (Homo sapiens, UniProt Q9BXF3)", "assay": "biochemical", "details": "read-out: % Ctrl (1 uM)"}, "BRD7": {"molecular_target": "BRD7 (Homo sapiens, UniProt Q9NPI1)", "assay": "biochemical", "details": "read-out: % Ctrl (1 uM)"}, "FALZ": {"molecular_target": "FALZ (Homo sapiens, UniProt Q12830)", "assay": "biochemical", "details": "read-out: % Ctrl (1 uM)"}, "PCAF": {"molecular_target": "PCAF (Homo sapiens, UniProt Q92831)", "assay": "biochemical", "details": "read-out: % Ctrl (1 uM)"}, "BRD1": {"molecular_target": "BRD1 (Homo sapiens, UniProt O95696)", "assay": "biochemical", "details": "read-out: % Ctrl (1 uM)"}, "BAZ2A": {"molecular_target": "BAZ2A (Homo sapiens, UniProt Q9UIF9)", "assay": "biochemical", "details": "read-out: % Ctrl (1 uM)"}, "BRPF1": {"molecular_target": "BRPF1 (Homo sapiens, UniProt P55201)", "assay": "biochemical", "details": "read-out: % Ctrl (1 uM)"}, "TRIM24(PHD,Bromo.)": {"molecular_target": "TRIM24(PHD,Bromo.) (Homo sapiens, UniProt O15164)", "assay": "biochemical", "details": "read-out: % Ctrl (1 uM)"}, "TAF1(2)": {"molecular_target": "TAF1(2) (Homo sapiens, UniProt P21675)", "assay": "biochemical", "details": "read-out: % Ctrl (1 uM)"}, "BRDT(2)": {"molecular_target": "BRDT(2) (Homo sapiens, UniProt Q58F21)", "assay": "biochemical", "details": "read-out: % Ctrl (1 uM)"}, "BRPF3": {"molecular_target": "BRPF3 (Homo sapiens, UniProt Q9ULD4)", "assay": "biochemical", "details": "read-out: % Ctrl (1 uM)"}, "CREBBP": {"molecular_target": "CREBBP (Homo sapiens, UniProt Q92793)", "assay": "biochemical", "details": "read-out: % Ctrl (1 uM)"}, "EP300": {"molecular_target": "EP300 (Homo sapiens, UniProt Q09472)", "assay": "biochemical", "details": "read-out: % Ctrl (1 uM)"}, "SMARCA4": {"molecular_target": "SMARCA4 (Homo sapiens, UniProt P51532)", "assay": "biochemical", "details": "read-out: % Ctrl (1 uM)"}, "ATAD2A": {"molecular_target": "ATAD2A (Homo sapiens, UniProt Q6PL18)", "assay": "biochemical", "details": "read-out: % Ctrl (1 uM)"}, "BRD4(2)": {"molecular_target": "BRD4(2) (Homo sapiens, UniProt O60885)", "assay": "biochemical", "details": "read-out: % Ctrl (1 uM)"}, "BRD2(2)": {"molecular_target": "BRD2(2) (Homo sapiens, UniProt P25440)", "sequence (P25440 whole entry)": "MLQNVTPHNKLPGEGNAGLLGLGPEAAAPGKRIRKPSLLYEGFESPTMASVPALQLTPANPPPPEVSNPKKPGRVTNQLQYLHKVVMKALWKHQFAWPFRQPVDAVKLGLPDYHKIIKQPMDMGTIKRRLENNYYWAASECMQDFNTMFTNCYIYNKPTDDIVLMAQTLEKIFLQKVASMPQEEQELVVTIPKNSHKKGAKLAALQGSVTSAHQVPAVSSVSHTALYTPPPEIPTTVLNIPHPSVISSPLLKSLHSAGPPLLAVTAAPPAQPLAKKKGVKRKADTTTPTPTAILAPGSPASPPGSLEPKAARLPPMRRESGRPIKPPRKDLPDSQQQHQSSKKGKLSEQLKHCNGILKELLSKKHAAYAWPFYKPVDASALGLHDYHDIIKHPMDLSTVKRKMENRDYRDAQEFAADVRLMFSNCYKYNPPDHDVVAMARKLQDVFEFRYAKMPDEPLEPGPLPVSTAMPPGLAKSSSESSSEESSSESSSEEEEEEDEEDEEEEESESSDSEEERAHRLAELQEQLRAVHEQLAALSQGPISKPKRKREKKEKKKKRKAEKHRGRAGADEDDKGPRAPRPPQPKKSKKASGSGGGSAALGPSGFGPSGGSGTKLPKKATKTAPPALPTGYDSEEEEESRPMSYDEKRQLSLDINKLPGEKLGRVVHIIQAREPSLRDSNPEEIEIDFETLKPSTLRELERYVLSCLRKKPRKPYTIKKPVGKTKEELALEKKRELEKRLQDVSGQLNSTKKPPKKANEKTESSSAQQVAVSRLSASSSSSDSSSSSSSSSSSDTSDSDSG", "assay": "biochemical", "details": "read-out: % Ctrl (1 uM)"}, "BRD3(2)": {"molecular_target": "BRD3(2) (Homo sapiens, UniProt Q15059)", "assay": "biochemical", "details": "read-out: % Ctrl (1 uM)"}, "TAF1L(2)": {"molecular_target": "TAF1L(2) (Homo sapiens, UniProt Q8IZX4)", "assay": "biochemical", "details": "read-out: % Ctrl (1 uM)"}, "BRD2(1)": {"molecular_target": "BRD2(1) (Homo sapiens, UniProt P25440)", "sequence (P25440 whole entry)": "as above", "assay": "biochemical", "details": "read-out: % Ctrl (1 uM)"}}, "note": "Like-named read-outs stand apart in the source and are kept apart here.", "data": [{"smiles": "COc1cc(-c2cn(C)c(=O)c3cnccc23)c(OC)cc1CN(C)C", "note": "[BI-9564]", "values": [{"measurement": "IC50", "setting": "BRD8(1); tracer: compound 1-biotin", "result": 970, "unit": "nM"}]}, {"smiles": "COc1cc(CN(C)C)cc(OC)c1-c1cn(C)c(=O)c2cnccc12", "note": "[compound 3]", "values": [{"measurement": "IC50", "setting": "BRD8(1)", "result": 85, "unit": "nM"}, {"measurement": "IC50", "setting": "BRD9 [1]", "result": "> 10000", "unit": "nM"}]}, {"smiles": "COc1cc(-c2cn(C)c(=O)c3cnccc23)cc(OC)c1CN(C)C", "note": "[BI-7273]", "values": [{"measurement": "IC50", "setting": "BRD8(1); tracer: compound 1-biotin", "result": "less potently by I-BRD9 and BI-7273"}]}, {"smiles": "COc1ccc2ccccc2c1-c1cn(C)c(=O)c2cnccc12", "note": "[compound 2]", "values": [{"measurement": "IC50", "setting": "BRD9 [1]", "result": "> 10000", "unit": "nM"}]}, {"smiles": "COc1cc(CN2CC(N)C2)cc(OC)c1-c1cn(C)c(=O)c2cc(F)ccc12", "note": "[DN02]", "values": [{"measurement": "remaining activity at 1 µM", "setting": "BRD9 [2]", "result": 80, "unit": "%"}, {"measurement": "remaining activity at 1 µM", "setting": "WDR9(2)", "result": 88, "unit": "%"}, {"measurement": "remaining activity at 1 µM", "setting": "PBRM1(2)", "result": 85, "unit": "%"}, {"measurement": "remaining activity at 1 µM", "setting": "GCN5L2", "result": 86, "unit": "%"}, {"measurement": "remaining activity at 1 µM", "setting": "BAZ2B", "result": 84, "unit": "%"}, {"measurement": "remaining activity at 1 µM", "setting": "Trim33(PHD,Bromo.)", "result": 92, "unit": "%"}, {"measurement": "remaining activity at 1 µM", "setting": "SMARCA2", "result": 74, "unit": "%"}, {"measurement": "remaining activity at 1 µM", "setting": "BRD4(1)", "result": 88, "unit": "%"}, {"measurement": "remaining activity at 1 µM", "setting": "PBRM1(5)", "result": 87, "unit": "%"}, {"measurement": "remaining activity at 1 µM", "setting": "ATAD2B", "result": 79, "unit": "%"}, {"measurement": "remaining activity at 1 µM", "setting": "BRD3(1)", "result": 76, "unit": "%"}, {"measurement": "remaining activity at 1 µM", "setting": "BRDT(1)", "result": 88, "unit": "%"}, {"measurement": "remaining activity at 1 µM", "setting": "CECR2", "result": 74, "unit": "%"}, {"measurement": "remaining activity at 1 µM", "setting": "BRD7", "result": 91, "unit": "%"}, {"measurement": "remaining activity at 1 µM", "setting": "FALZ", "result": 82, "unit": "%"}, {"measurement": "remaining activity at 1 µM", "setting": "PCAF", "result": 69, "unit": "%"}, {"measurement": "remaining activity at 1 µM", "setting": "BRD1", "result": 89, "unit": "%"}, {"measurement": "remaining activity at 1 µM", "setting": "BAZ2A", "result": 69, "unit": "%"}, {"measurement": "remaining activity at 1 µM", "setting": "BRPF1", "result": 65, "unit": "%"}, {"measurement": "remaining activity at 1 µM", "setting": "TRIM24(PHD,Bromo.)", "result": 90, "unit": "%"}, {"measurement": "remaining activity at 1 µM", "setting": "TAF1(2)", "result": 79, "unit": "%"}, {"measurement": "remaining activity at 1 µM", "setting": "BRDT(2)", "result": 88, "unit": "%"}, {"measurement": "remaining activity at 1 µM", "setting": "BRPF3", "result": 94, "unit": "%"}, {"measurement": "remaining activity at 1 µM", "setting": "CREBBP", "result": 9.2, "unit": "%"}, {"measurement": "remaining activity at 1 µM", "setting": "EP300", "result": 8.4, "unit": "%"}, {"measurement": "remaining activity at 1 µM", "setting": "SMARCA4", "result": 71, "unit": "%"}, {"measurement": "remaining activity at 1 µM", "setting": "ATAD2A", "result": 100, "unit": "%"}, {"measurement": "remaining activity at 1 µM", "setting": "BRD4(2)", "result": 94, "unit": "%"}, {"measurement": "remaining activity at 1 µM", "setting": "BRD2(2)", "result": 89, "unit": "%"}, {"measurement": "remaining activity at 1 µM", "setting": "BRD3(2)", "result": 75, "unit": "%"}, {"measurement": "remaining activity at 1 µM", "setting": "TAF1L(2)", "result": 91, "unit": "%"}, {"measurement": "remaining activity at 1 µM", "setting": "BRD2(1)", "result": 72, "unit": "%"}]}]}
